According to ChEMBL document CHEMBL1201861, “Genomics of Drug Sensitity in Cancer screening data, Wellcome Trust Sanger Institute”:

Assays:
Test in all cases: cells
IST-MEL1 = format: functional, cell-based, Homo sapiens; conditions: Homo sapiens, IST-MEL1;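 further: growth inhibition of the cell line, read out with a cell viability assay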
Description: SANGER: Inhibition of human IST-MEL1 cell growth in a cell viability assay.

ES6 = format: functional, cell-based; conditions: Homo sapiens;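 further: growth inhibition of human ES6 cells, read out with a cell viability assay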
Description: SANGER: Inhibition of human ES6 cell growth in a cell viability assay.

KLE = format: functional, cell-based; conditions: Homo sapiens;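 further: growth inhibition of human KLE cells, read out with a cell viability assay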
Description: SANGER: Inhibition of human KLE cell growth in a cell viability assay.

SW872 = format: functional, cell-based, Homo sapiens; conditions: Homo sapiens, SW872;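 further: growth inhibition of SW872 cells, read out by a viability assay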
Description: SANGER: Inhibition of human SW872 cell growth in a cell viability assay.

NH-12 = format: functional, cell-based, Homo sapiens; conditions: Homo sapiens, NH-12;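 further: growth inhibition of NH-12 cells, read out with a cell viability assay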
Description: SANGER: Inhibition of human NH-12 cell growth in a cell viability assay.

NCI-H1650 = format: functional, cell-based, Homo sapiens; conditions: Homo sapiens, NCI-H1650;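 further: growth inhibition of human NCI-H1650 cells measured by a cell viability assay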
Description: SANGER: Inhibition of human NCI-H1650 cell growth in a cell viability assay.

IA-LM = format: functional, cell-based; conditions: Homo sapiens;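 further: cell viability assay measuring growth inhibition of human IA-LM cells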
Description: SANGER: Inhibition of human IA-LM cell growth in a cell viability assay.

SNU-5 = format: functional, cell-based, Homo sapiens; conditions: Homo sapiens, SNU-5;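 further: cell viability readout used to measure growth inhibition in human NCI-SNU-5 cells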
Description: SANGER: Inhibition of human NCI-SNU-5 cell growth in a cell viability assay.

SNU1 = format: functional, cell-based, Homo sapiens; conditions: Homo sapiens, SNU1;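 further: growth inhibition of human NCI-SNU-1 cells, measured with a cell viability assay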
Description: SANGER: Inhibition of human NCI-SNU-1 cell growth in a cell viability assay.

D-263MG = format: functional, cell-based, Homo sapiens; conditions: Homo sapiens, D-263MG
Description: SANGER: Inhibition of human D-263MG cell growth in a cell viability assay.

LS-411N = format: functional, cell-based, Homo sapiens; conditions: Homo sapiens, LS-411N
SNU-C2B = format: functional, cell-based; conditions: Homo sapiens;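 further: cell viability readout used to measure compound-driven suppression of SNU-C2B cell proliferation, IC50 marking half-maximal growth inhibition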
Description: SANGER: Inhibition of human SNU-C2B cell growth in a cell viability assay.

BT-474 = format: functional, cell-based, Homo sapiens; conditions: Homo sapiens, BT-474
Description: SANGER: Inhibition of human BT-474 cell growth in a cell viability assay.

CTV-1 = format: functional, cell-based, Homo sapiens; conditions: Homo sapiens, CTV-1;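 further: growth inhibition of the cell line, read out with a cell viability assay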
Description: SANGER: Inhibition of human CTV-1 cell growth in a cell viability assay.

NB10 = format: functional, cell-based, Homo sapiens; conditions: Homo sapiens, NB10;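 further: growth inhibition of NB10 cells, read out by a cell viability assay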
Description: SANGER: Inhibition of human NB10 cell growth in a cell viability assay.

SK-N-DZ = format: functional, cell-based, Homo sapiens; conditions: Homo sapiens, SK-N-DZ; read-out: IC50;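 further: growth inhibition of the cancer cell line, read out through a viability assay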
Description: SANGER: Inhibition of human SK-N-DZ cell growth in a cell viability assay.

ONS-76 = format: functional, cell-based, Homo sapiens; conditions: Homo sapiens, ONS-76;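 further: growth inhibition of human ONS-76 cells, read out with a cell viability assay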
Description: SANGER: Inhibition of human ONS-76 cell growth in a cell viability assay.

NCI-H69 = format: functional, cell-based, Homo sapiens; conditions: Homo sapiens, NCI-H69;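 further: growth inhibition of the cell line, read out with a cell viability assay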
Description: SANGER: Inhibition of human NCI-H69 cell growth in a cell viability assay.

NCI-H1770 = format: functional, cell-based, Homo sapiens; conditions: Homo sapiens, NCI-H1770;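 further: growth inhibition of NCI-H1770 cells determined with a viability readout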
Description: SANGER: Inhibition of human NCI-H1770 cell growth in a cell viability assay.

COLO-800 = format: functional, cell-based, Homo sapiens; conditions: Homo sapiens, COLO-800;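 further: growth inhibition of COLO-800 cells, read out with a cell viability assay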
Description: SANGER: Inhibition of human COLO-800 cell growth in a cell viability assay.

KNS-81-FD = format: functional, cell-based, Homo sapiens; conditions: Homo sapiens, KNS-81-FD;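 further: growth inhibition of KNS-81-FD cells, read out with a cell viability assay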
Description: SANGER: Inhibition of human KNS-81-FD cell growth in a cell viability assay.

MS-1 = format: functional, cell-based, Homo sapiens; conditions: Homo sapiens, MS-1;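 further: growth inhibition of MS-1 cells, read out by cell viability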
Description: SANGER: Inhibition of human MS-1 cell growth in a cell viability assay.

no-11 = format: functional, cell-based, Homo sapiens; conditions: Homo sapiens;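 further: growth inhibition of human NO-11 cells, read out with a cell viability assay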
Description: SANGER: Inhibition of human no-11 cell growth in a cell viability assay.

COLO-668 = format: functional, cell-based, Homo sapiens; conditions: Homo sapiens, COLO-668
Description: SANGER: Inhibition of human COLO-668 cell growth in a cell viability assay.

RPMI-8866 = format: functional, cell-based, Homo sapiens; conditions: Homo sapiens, RPMI-8866
Description: SANGER: Inhibition of human RPMI-8866 cell growth in a cell viability assay.

MOLT-4 = format: functional, cell-based, Homo sapiens; conditions: Homo sapiens, MOLT-4;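 further: growth inhibition of MOLT-4 cells, determined with a cell viability readout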
Description: SANGER: Inhibition of human MOLT-4 cell growth in a cell viability assay.

EW-11 = format: functional, cell-based, Homo sapiens; conditions: Homo sapiens, EW-11;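 further: growth inhibition of human EW-11 cells, measured with a cell viability assay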
Description: SANGER: Inhibition of human EW-11 cell growth in a cell viability assay.

JVM-2 = format: functional, cell-based, Homo sapiens; conditions: Homo sapiens, JVM-2;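 further: growth inhibition of JVM-2 cells determined by a cell viability assay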
Description: SANGER: Inhibition of human JVM-2 cell growth in a cell viability assay.

LS-1034 = format: functional, cell-based, Homo sapiens; conditions: Homo sapiens, LS-1034
Description: SANGER: Inhibition of human LS-1034 cell growth in a cell viability assay.

697 = format: functional, cell-based, Homo sapiens; conditions: Homo sapiens
Description: SANGER: Inhibition of human 697 cell growth in a cell viability assay.

UACC-257 = format: functional, cell-based, Homo sapiens; conditions: Homo sapiens, UACC-257
Description: SANGER: Inhibition of human UACC-257 cell growth in a cell viability assay.

MFM-223 = format: functional, cell-based, Homo sapiens; conditions: Homo sapiens, MFM-223
Description: SANGER: Inhibition of human MFM-223 cell growth in a cell viability assay.

NCI-H23 = format: functional, cell-based, Homo sapiens; conditions: Homo sapiens, NCI-H23;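 further: cell viability assay measuring growth inhibition of NCI-H23 cells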
Description: SANGER: Inhibition of human NCI-H23 cell growth in a cell viability assay.

SK-N-FI = format: functional, cell-based, Homo sapiens; conditions: Homo sapiens, SK-N-FI;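 further: cell viability assay measuring growth inhibition of human SK-N-FI cells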
Description: SANGER: Inhibition of human SK-N-FI cell growth in a cell viability assay.

CTB-1 = format: functional, cell-based, Homo sapiens; conditions: Homo sapiens, CTB-1
Description: SANGER: Inhibition of human CTB-1 cell growth in a cell viability assay.

U-266 = format: functional, cell-based, Homo sapiens; conditions: Homo sapiens, U-266
Description: SANGER: Inhibition of human U-266 cell growth in a cell viability assay.

A4-Fuk = format: functional, cell-based, Homo sapiens; conditions: Homo sapiens, A4-Fuk;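 further: growth inhibition of A4-Fuk cells, read out by a cell viability assay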
Description: SANGER: Inhibition of human A4-Fuk cell growth in a cell viability assay.

NCI-H209 = format: functional, cell-based, Homo sapiens; conditions: Homo sapiens, NCI-H209;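 further: growth inhibition of human NCI-H209 cells, measured by a cell viability assay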
Description: SANGER: Inhibition of human NCI-H209 cell growth in a cell viability assay.

EM-2 = format: functional, cell-based, Homo sapiens; conditions: Homo sapiens, EM-2;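 further: growth inhibition of EM-2 cells, read out with a cell viability assay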
Description: SANGER: Inhibition of human EM-2 cell growth in a cell viability assay.

KARPAS-45 = format: functional, cell-based, Homo sapiens; conditions: Homo sapiens, KARPAS-45;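 further: inhibition of cell line growth, read out through a viability assay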
Description: SANGER: Inhibition of human KARPAS-45 cell growth in a cell viability assay.

GI-ME-N = format: functional, cell-based, Homo sapiens; conditions: Homo sapiens, GI-ME-N;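 further: growth inhibition of human GI-ME-N cells, read out with a cell viability assay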
Description: SANGER: Inhibition of human GI-ME-N cell growth in a cell viability assay.

SF-539 = format: functional, cell-based, Homo sapiens; conditions: Homo sapiens, SF-539;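 further: Read-out is a cell viability assay, with IC50 reflecting inhibition of cell growth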
Description: SANGER: Inhibition of human SF539 cell growth in a cell viability assay.

J-RT3-T3-5 = format: functional, cell-based, Homo sapiens; conditions: Homo sapiens, J-RT3-T3-5;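 further: cell viability assay measuring growth inhibition of human J-RT3-T3-5 cells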
Description: SANGER: Inhibition of human J-RT3-T3-5 cell growth in a cell viability assay.

MZ7-mel = format: functional, cell-based, Homo sapiens; conditions: Homo sapiens, MZ7-mel;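 further: growth inhibition of human MZ7-mel cells, measured by a cell viability assay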
Description: SANGER: Inhibition of human MZ7-mel cell growth in a cell viability assay.

MPP-89 = format: functional, cell-based, Homo sapiens; conditions: Homo sapiens, MPP-89;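 further: growth inhibition of human MPP-89 cells, read out with a cell viability assay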
Description: SANGER: Inhibition of human MPP-89 cell growth in a cell viability assay.

IST-SL1 = format: functional, cell-based, Homo sapiens; conditions: Homo sapiens, IST-SL1;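 further: growth inhibition of human IST-SL1 cells, read out with a cell viability assay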
Description: SANGER: Inhibition of human IST-SL1 cell growth in a cell viability assay.

COR-L88 = format: functional, cell-based, Homo sapiens; conditions: Homo sapiens, COR-L88;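 further: growth inhibition of COR-L88 cells, read out with a cell viability assay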
Description: SANGER: Inhibition of human COR-L88 cell growth in a cell viability assay.

KNS-42 = format: functional, cell-based; conditions: Homo sapiens;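 further: growth inhibition of KNS-42 cells, read out with a cell viability assay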
Description: SANGER: Inhibition of human KNS-42 cell growth in a cell viability assay.

Lu-65 = format: functional, cell-based, Homo sapiens; conditions: Homo sapiens, Lu-65;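 further: growth inhibition of Lu-65 cancer cells, read out by a cell viability assay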
Description: SANGER: Inhibition of human LU-65 cell growth in a cell viability assay.

DJM-1 = format: functional, cell-based, Homo sapiens; conditions: Homo sapiens, DJM-1;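 further: growth inhibition of human DJM-1 cells, read out by a cell viability assay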
Description: SANGER: Inhibition of human DJM-1 cell growth in a cell viability assay.

Work on `CC1(C)CCC(c2ccc(Cl)cc2)=C(CN2CCN(c3ccc(C(=O)NS(=O)(=O)c4ccc(N[C@H](CCN5CCOCC5)CSc5ccccc5)c(S(=O)(=O)C(F)(F)F)c4)cc3)CC2)C1` [NAVITOCLAX] yielded an IC50 (IST-MEL1) of over 2000 nM, an IC50 (ES6) of over 2000 nM and an IC50 (KLE) of over 2000 nM. It also gave an IC50 (SW872) of over 2000 nM, an IC50 (NH-12) of 107 nM and an IC50 (NCI-H1650) of over 2000 nM. The IC50 (IA-LM) was over 2000 nM, the IC50 (SNU-5) was over 2000 nM and the IC50 (SNU1) was 1370 nM. For the same molecule, the IC50 (D-263MG) was over 2000 nM, the IC50 (LS-411N) was over 2000 nM and the IC50 (SNU-C2B) was over 2000 nM. The IC50 (BT-474) was over 2000 nM, the IC50 (CTV-1) was over 2000 nM and the IC50 (NB10) was over 2000 nM. For the same molecule, the IC50 (SK-N-DZ) was over 2000 nM, the IC50 (ONS-76) was over 2000 nM and the IC50 (NCI-H69) was over 2000 nM. It also gave an IC50 (NCI-H1770) of over 2000 nM, an IC50 (COLO-800) of over 2000 nM and an IC50 (KNS-81-FD) of 440 nM. For the same molecule, the IC50 (MS-1) was 469 nM, the IC50 (no-11) was over 2000 nM and the IC50 (COLO-668) was over 2000 nM. It also gave an IC50 (RPMI-8866) of over 2000 nM, an IC50 (MOLT-4) of 152 nM and an IC50 (EW-11) of 1960 nM. For the same molecule, the IC50 (JVM-2) was over 2000 nM, the IC50 (LS-1034) was over 2000 nM and the IC50 697 was 108 nM. For the same molecule, the IC50 (UACC-257) was over 2000 nM, the IC50 (MFM-223) was over 2000 nM and the IC50 (NCI-H23) was over 2000 nM. It also gave an IC50 (SK-N-FI) of over 2000 nM, an IC50 (CTB-1) of over 2000 nM and an IC50 (U-266) of over 2000 nM. The IC50 (A4-Fuk) was over 2000 nM, the IC50 (NCI-H209) was 87 nM and the IC50 (EM-2) was 199 nM. It also gave an IC50 (KARPAS-45) of 78.1 nM, an IC50 (GI-ME-N) of over 2000 nM and an IC50 (SF-539) of over 2000 nM. It also gave an IC50 (J-RT3-T3-5) of 608 nM, an IC50 (MZ7-mel) of over 2000 nM and an IC50 (MPP-89) of over 2000 nM. The IC50 (IST-SL1) was 353 nM, the IC50 (COR-L88) was 365 nM and the IC50 (KNS-42) was over 2000 nM. It also gave an IC50 (Lu-65) of over 2000 nM and an IC50 (DJM-1) of over 2000 nM.

Molecule `C/C(=C\c1csc(C)n1)[C@@H]1C[C@@H]2O[C@]2(C)CCC[C@H](C)[C@H](O)[C@@H](C)C(=O)C(C)(C)[C@@H](O)CC(=O)O1` [PATUPILONE] has an IC50 (IST-MEL1) of 4.06 nM, an IC50 (ES6) of 11.2 nM and an IC50 (KLE) of over 32 nM. It also gave an IC50 (SW872) of 0.774 nM, an IC50 (NH-12) of 0.891 nM and an IC50 (NCI-H1650) of 9.54 nM. It also gave an IC50 (IA-LM) of 0.393 nM, an IC50 (SNU-5) of 30.4 nM and an IC50 (SNU1) of over 32 nM. For the same molecule, the IC50 (D-263MG) was over 32 nM, the IC50 (LS-411N) was 23.6 nM and the IC50 (SNU-C2B) was 4.3 nM. It also gave an IC50 (BT-474) of 13.2 nM, an IC50 (CTV-1) of 5.16 nM and an IC50 (NB10) of 11 nM. For the same molecule, the IC50 (SK-N-DZ) was 7.59 nM, the IC50 (ONS-76) was 4.1 nM and the IC50 (NCI-H69) was 14.8 nM. For the same molecule, the IC50 (NCI-H1770) was 0.907 nM, the IC50 (COLO-800) was over 32 nM and the IC50 (KNS-81-FD) was over 32 nM. For the same molecule, the IC50 (MS-1) was 10.2 nM, the IC50 (no-11) was over 32 nM and the IC50 (COLO-668) was over 32 nM. The IC50 (RPMI-8866) was 19.8 nM, the IC50 (MOLT-4) was 2.52 nM and the IC50 (EW-11) was over 32 nM. It also gave an IC50 (JVM-2) of over 32 nM, an IC50 (LS-1034) of 0.912 nM and an IC50 697 of 1.78 nM. The IC50 (UACC-257) was 29.7 nM, the IC50 (MFM-223) was over 32 nM and the IC50 (NCI-H23) was 23.8 nM. For the same molecule, the IC50 (SK-N-FI) was over 32 nM, the IC50 (CTB-1) was 8.31 nM and the IC50 (U-266) was 9.72 nM. For the same molecule, the IC50 (A4-Fuk) was 1.09 nM, the IC50 (NCI-H209) was 20.9 nM and the IC50 (EM-2) was over 32 nM. The IC50 (KARPAS-45) was 5.82 nM, the IC50 (GI-ME-N) was 6.08 nM and the IC50 (SF-539) was 2.27 nM. The IC50 (J-RT3-T3-5) was 13.5 nM, the IC50 (MZ7-mel) was 17.1 nM and the IC50 (MPP-89) was 8.29 nM. For the same molecule, the IC50 (IST-SL1) was 6.37 nM, the IC50 (COR-L88) was over 32 nM and the IC50 (KNS-42) was 3.91 nM. It also gave an IC50 (Lu-65) of 21 nM and an IC50 (DJM-1) of 3.13 nM.

`COc1ccc(-c2cc3nccn3c(Nc3ncccc3C(N)=O)n2)cc1OC` showed an IC50 (IST-MEL1) of 4610 nM, an IC50 (ES6) of 1240 nM and an IC50 (KLE) of over 8000 nM. It also gave an IC50 (SW872) of 1180 nM, an IC50 (NH-12) of 2490 nM and an IC50 (NCI-H1650) of over 8000 nM. It also gave an IC50 (IA-LM) of 2710 nM, an IC50 (SNU-5) of over 8000 nM and an IC50 (SNU1) of 1990 nM. It also gave an IC50 (D-263MG) of over 8000 nM, an IC50 (LS-411N) of 3780 nM and an IC50 (SNU-C2B) of 1840 nM. For the same molecule, the IC50 (BT-474) was over 8000 nM, the IC50 (CTV-1) was 1500 nM and the IC50 (NB10) was 5300 nM. It also gave an IC50 (SK-N-DZ) of over 8000 nM, an IC50 (ONS-76) of over 8000 nM and an IC50 (NCI-H69) of over 8000 nM. The IC50 (NCI-H1770) was 2610 nM, the IC50 (COLO-800) was over 8000 nM and the IC50 (KNS-81-FD) was over 8000 nM. It also gave an IC50 (MS-1) of 7700 nM, an IC50 (no-11) of over 8000 nM and an IC50 (COLO-668) of over 8000 nM. It also gave an IC50 (RPMI-8866) of over 8000 nM, an IC50 (MOLT-4) of 5810 nM and an IC50 (EW-11) of over 8000 nM. For the same molecule, the IC50 (JVM-2) was over 8000 nM, the IC50 (LS-1034) was over 8000 nM and the IC50 697 was 582 nM. For the same molecule, the IC50 (UACC-257) was over 8000 nM, the IC50 (MFM-223) was over 8000 nM and the IC50 (NCI-H23) was over 8000 nM. The IC50 (SK-N-FI) was over 8000 nM, the IC50 (CTB-1) was over 8000 nM and the IC50 (U-266) was 4710 nM. For the same molecule, the IC50 (A4-Fuk) was 1810 nM, the IC50 (NCI-H209) was over 8000 nM and the IC50 (EM-2) was over 8000 nM. The IC50 (KARPAS-45) was 1900 nM, the IC50 (GI-ME-N) was over 8000 nM and the IC50 (SF-539) was over 8000 nM. The IC50 (J-RT3-T3-5) was 6240 nM, the IC50 (MZ7-mel) was over 8000 nM and the IC50 (MPP-89) was 1670 nM. For the same molecule, the IC50 (IST-SL1) was 7980 nM, the IC50 (COR-L88) was over 8000 nM and the IC50 (KNS-42) was over 8000 nM. For the same molecule, the IC50 (Lu-65) was 2220 nM and the IC50 (DJM-1) was over 8000 nM.
